Results taken from PubChem BioAssay (NCI).
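Values below derive from 48-hour exposures of cells grown in 96-well plates, with endpoints linearly interpolated between the two concentrations bracketing the appropriate inhibition level. The concentration for full growth arrest is given as TGI.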

How the values were obtained:
Assay in all cases: inhibition of tumour cell growth, NCI panel, 48 h
LOX IMVI melanoma = system: LOX IMVI melanoma
COLO 205 colon = system: COLO 205 colon
RPMI-8226 leukemia = system: RPMI-8226 leukemia
786-0 renal = system: 786-0 renal
M14 melanoma = system: M14 melanoma
MDA-MB-231 breast = system: MDA-MB-231 breast
HL-60(TB) leukemia = system: HL-60(TB) leukemia
UACC-62 melanoma = system: UACC-62 melanoma
SR leukemia = system: SR leukemia
A549 NSCLC = system: A549 NSCLC
NCI-H23 lung = system: NCI-H23 lung
SK-MEL-2 melanoma = system: SK-MEL-2 melanoma
CAKI-1 renal = system: CAKI-1 renal
SK-OV-3 ovarian = system: SK-OV-3 ovarian
SN12C renal = system: SN12C renal
HCT-15 colon = system: HCT-15 colon
BT-549 breast = system: BT-549 breast
SNB-75 CNS = system: SNB-75 CNS
HT29 colon = system: HT29 colon

SMILES	TGI (LOX IMVI melanoma) [µM]	TGI (COLO 205 colon) [µM]	TGI (RPMI-8226 leukemia) [µM]	TGI (786-0 renal) [µM]	TGI (M14 melanoma) [µM]	TGI (MDA-MB-231 breast) [µM]	TGI (HL-60(TB) leukemia) [µM]	TGI (UACC-62 melanoma) [µM]	TGI (SR leukemia) [µM]	TGI (A549 NSCLC) [µM]	TGI (NCI-H23 lung) [µM]	TGI (SK-MEL-2 melanoma) [µM]	TGI (CAKI-1 renal) [µM]	TGI (SK-OV-3 ovarian) [µM]	TGI (SN12C renal) [µM]	TGI (HCT-15 colon) [µM]	TGI (BT-549 breast) [µM]	TGI (SNB-75 CNS) [µM]	TGI (HT29 colon) [µM]
N=C(N)SCc1ccc2c(c1)Sc1ccccc1O2	60.4	17.8	> 36.8	24.6	7.55	45.2	> 63	19.7	> 31.6	23	21.5	15.6	19.7	27	46.9	21.7	16.1	18.2	8.54
CCCCC(C(=O)NCCNC(=O)CCC(=O)N(C)O)C(=O)NCCNC(=O)CCC(=O)N(C)O	> 100	> 100	> 100	> 100	> 100	> 100	> 100	> 100	> 100	> 100	> 100	> 100	> 100	> 100	> 100	> 100	> 100	> 100	> 100
CC(=N/N=C/c1ccccn1)/C(C)=N/N=C(C)/C(C)=N/N=C(C)/C(C)=N/N=C(C)/C(C)=N\N=C\c1ccccn1	> 100	> 100	> 100	> 100	> 100	> 100	> 100		> 100	> 100	> 100	> 100	> 100	> 100	> 100	> 100	> 100	> 100	> 100
CC1=NN(c2cccc(Cl)c2)C2(C1=C/C=C/c1ccccc1)C(Cl)C(=O)N2c1nc2ccccc2s1 (stereo not drawn)	57	> 100	23.5	> 55	> 91.2	58.3	> 68.3	> 100	9.54	> 100	> 80.3	40.1	> 49.8	> 95.1	> 100	> 82.1	> 100		> 100
COc1ccc(NC(=O)CC(=O)N2N=C(N3c4ccccc4Sc4ccccc43)CC2c2ccccc2)cc1 (stereo not drawn)		> 100	> 100	> 100	> 100	> 100	> 100	> 100	> 100	> 100	> 100	> 100	> 100	> 100	> 100	> 100	> 100	> 100	> 100
CSC(=S)N(C)C	> 100	> 100	> 100	> 100	> 100	> 100	> 100	> 100	> 100	> 100	> 100	> 100	> 100	> 100	> 100	> 100	> 100	> 100	> 100
COc1cccc2c1OC1(C=C2)Oc2ccccc2C(=O)N1C (stereo not drawn)	14.5	> 100	> 100	> 100	> 100	> 100	75.9	> 100	54.2	> 100	> 100	> 100	> 100	74.3	> 100	> 100	88.2	74.1	> 100
Cc1cc(C(=O)CCCCOc2ccc(C3=NCCO3)cc2)c(C)n1C		> 100	62.4	> 100	> 100	> 100	23.7		54.9		> 100	> 100	> 100	> 100	> 100	> 100	> 100	> 100	> 100
O=C(O)c1ccccc1CC1Cc2ccccc2C1=O (stereo not drawn)	> 100	> 100	> 100	> 100	> 100	> 100	> 100	> 100	> 100	> 100	> 100	> 100	> 100	> 100	> 100	> 100	> 100	> 100	> 100
CCC1(CC)C(=O)NN(C(=O)c2ccccc2)C1=O	> 100	> 100	> 100	> 100	> 100	> 100	> 100	> 100	> 100	> 100	> 100	> 100	> 100	> 100	> 100	> 100	> 100	> 100	> 100
Oc1ccc([I+]c2ccccc2)cc1O	> 100	> 100	61.4	> 100		> 100	47.1		> 100	65.5	> 100		> 100		> 100	> 100	> 100	> 100	> 100
CCOC(=O)c1c(C)nc2c3ccccc3c(C#N)c(C)n12	> 100		> 100			46.5	> 100	> 100	> 100	> 100		> 100	> 100	51.3	> 100	> 100	> 100	75.8	
CC1(C)CCCC2OC2CCC(C)(C)C1=O (stereo not drawn)	> 100	> 100	> 100	> 100	> 100	> 100	> 100	> 100	> 100	> 100	> 100	> 100	> 100	> 100	> 100	> 100	> 100	> 100	> 100
Cc1c(S(=O)(=O)c2ccccc2)c(N)n(CCN(C)C)c1C		> 100	> 100	> 100	> 100	> 100	> 100	> 100	> 100	> 100	> 100	> 100	> 100	> 100	> 100	> 100	> 100	> 100	> 100
Cc1cc2c3c(nc4ccccc42)C(=O)c2ccccc2-c3n1		> 100	> 100	> 100	27.3	78.1		4.06	37.2	44.9	15.9	47.8	60.7	84	> 100	16.8	48.4	29	60.2
COc1cccc(CCCNC(=O)Cc2cc(OC)c(OC)cc2CO)c1	> 100	> 100		> 100	> 100	> 100	> 100	> 100	> 100	> 100	> 100	> 100	> 100		> 100	> 100	> 100	> 100	> 100
CCN(CC)CCn1c(=O)c2cccnc2n2c3c(=O)n(C)c(=O)n(C)c3nc12		> 100	> 100	> 100	> 100	> 100	> 100	> 100	> 100	> 100	> 100	> 100	> 100	> 100	> 100	27.3	> 100	> 100	> 100
NS(=O)(=O)c1cc(Cl)c(NC(=S)NC(=O)Nc2ccc(Cl)c(Cl)c2)c(Cl)c1	> 100	33.6		> 100	> 100	> 100	68.4	90.2	> 100	> 100	> 100	90.6	> 100	> 100	> 100	> 100	> 100	> 100	> 100
N#CC12C(=O)N=C(N)C1(C#N)C(c1ccco1)NC1=C2CCCC1 (stereo not drawn)	> 100	> 100	> 100	> 100	> 100	> 100	> 100	> 100	> 100	> 100	> 100	> 100	> 100	> 100	> 100	> 100	> 100		> 100
Cc1ccc(C(=C2Sc3ccccc3S2)C(=C2Sc3ccccc3S2)c2ccc(C)s2)s1		> 100	> 100	> 100	> 100	> 100	> 100	> 100	85.7	> 100	> 100	> 100	> 100	> 100	> 100	> 100	> 100	> 100	> 100
O=c1[nH]c(Nc2nc3ccccc3[nH]2)nc(O)c1-c1ccccc1	> 100	> 100		> 100	> 100	> 100		> 100	> 100	> 100	> 100	> 100	> 100	> 100	> 100	> 100	> 100	> 100	> 100
Cc1ccc(S(=O)(=O)N/N=C/C2(c3ccccc3)c3ccccc3-c3ccccc32)cc1	26.1	13.8	87.2	31.2	23.3	20.8	> 100	27.3	> 100	19.8	37.1	25.9	62.4	39.8	23.9	22.4	27.7		26.3
Cc1ccc(-c2[nH]c(=O)n(C3OC(CO)C(O)C(O)C3O)c(=O)c2C#N)cc1 (stereo not drawn)		> 100	> 100	> 100	> 100	> 100	> 100	> 100	> 100	> 100	> 100	> 100	> 100	> 100	> 100	> 100	> 100	> 100	> 100
OCCc1ccsc1-c1sc(-c2cc(CCO)c(-c3sccc3CCO)s2)cc1CCO	72.3	31	> 100	29	23.7	48.5		25.4	> 100	> 100	41	29.5	44.3	35.8	63.1	40.5	20.3		
CC1(C)C2CCC1(C)[C@H](n1c(=O)n([C@@H]3CC4CCC3(C)C4(C)C)c(=O)n([C@@H]3CC4CCC3(C)C4(C)C)c1=O)C2	> 100		> 100	> 100	> 100	> 100	63.1		> 100	> 100	> 100	72.7	> 100			> 100	> 100	46.5	> 100
CCNC(=O)Cc1nc2c(N)ncnc2n1C1OC(CO)C(O)C1O (stereo not drawn)	> 100	> 100	> 100	> 100	> 100	> 100	> 100	> 100	> 100	> 100	> 100	> 100	> 100	> 100	> 100	> 100	> 100		> 100
